Entries after “also recorded” stand apart in the source; their conditions may differ. Structures can show the parent of a compound that is named as a salt. Where two headings read alike, the source gives them in different places.

The assay concerns sigma receptor. The assay is described as follows: [3H]DTG displacement radioligand binding assay, guinea pig brain membranes.
Setting [1] is: Example 25, guinea pig brain membrane homogenates, read-out: IC50 binding values.
[2] abbreviates: list of especially preferred compounds, read-out: IC50 (high binding to the sigma receptor).
Setting [3] is: read-out: IC50 vs [3H]DTG, Table I, guinea pig brain membranes.

As to `Cc1ccccc1NC(=N)Nc1ccccc1I` [N-(2-iodophenyl)-N'-(2-methylphenyl)-guanidine], the “in vitro [3H]DTG displacement activity” value is “found to possess the aforesaid in vitro [^3 H]DTG displacement activity”. In addition, under setting [1], the half-inhibitory concentration (IC50) is 21 nM. The IC50 under setting [2] came to 21 nM. Moreover, the IC50 under setting [3] turned out to be 21 ± 1 nM. For `N=C(Nc1ccccc1[N+](=O)[O-])NC12CC3CC(CC(C3)C1)C2` [N-(1-adamantyl)-N'-(o-nitrophenyl)guanidine], the “in vitro [3H]DTG displacement activity” value is “found to possess the aforesaid in vitro [^3 H]DTG displacement activity”. The IC50 under setting [1] was 30 nM. Also, the concentration for half-maximal inhibition (IC50) under setting [2] was 30 nM.

In the case of `N=C(NC1CC2CCC1C2)NC1CC2CCC1C2` (stereo not drawn) [N,N'-di-(exo-2-norbornyl)guanidine], the “in vitro [3H]DTG displacement activity” value was “found to possess the aforesaid in vitro [^3 H]DTG displacement activity”. Also, the IC50 under setting [1] was found to be 22 nM. Further, the half-maximal inhibitory concentration (IC50) under setting [2] came out at 22 nM. `Cc1ccccc1N(C)C(=N)NC12CC3CC(CC(C3)C1)C2` [N-(Adamantan-1-yl)-N'-(2-methylphenyl)-N'-methyl-guanidine]: the half-inhibitory concentration (IC50) under setting [2] was determined as 22.6 nM and the 50% inhibitory concentration (IC50) (read-out: IC50 vs [3H]DTG, Table II, ± s.e.m. (n)) was 22.6 nM. With `Cc1cc(I)ccc1NC(=N)Nc1ccc(I)cc1C` [N,N'-di-(2-methyl-4-iodophenyl)guanidine], the “in vitro [3H]DTG displacement activity” value is “found to possess the aforesaid in vitro [^3 H]DTG displacement activity”. `CNCCC=C1c2ccccc2CCc2ccccc21` [Nortriptyline, reference compound]: where the note is “read-out: IC50 vs. [3H]DTG”, the concentration for half-maximal inhibition (IC50) worked out at 2000 nM. For beta-endorphin [reference compound], under “10 uM”, the “displacement of [3H]DTG” value is given as “no significant displacement”.

Turning to `Cc1ccccc1NC(=N)Nc1c(C)cccc1C` [N-(2,6-dimethylphenyl)-N'-(2-methylphenyl)-guanidine], the “in vitro [3H]DTG displacement activity” value is “found to possess the aforesaid in vitro [^3 H]DTG displacement activity”. Besides, the IC50 under setting [1] was determined as 70 nM. Further, the concentration for half-maximal inhibition (IC50) under setting [2] came out at 70 nM. The half-maximal inhibitory concentration (IC50) under setting [3] is 70 ± 3 nM. Regarding `CN1CCc2cc3c(cc2[C@H]1[C@@H]1OC(=O)c2c1ccc1c2OCO1)OCO3` [bicuculline, reference compound], the “displacement of [3H]DTG” value (10 uM) was “no significant displacement”. Turning to `N=C(N)NCCC(=O)O` [beta-guanidino propionic acid, reference compound], under “10 uM”, the “displacement of [3H]DTG” value was “no significant displacement”. `N=C(NCc1ccccc1)NCc1ccccc1` [N,N'-dibenzylguanidine]: the “in vitro [3H]DTG displacement activity” value was “found to possess the aforesaid in vitro [^3 H]DTG displacement activity”. The concentration for half-maximal inhibition (IC50) under setting [1] came out at 90 nM. Further, the 50% inhibitory concentration (IC50) under setting [2] was 90 nM.

Regarding `C=CCN1CCC2(C)c3cc(O)ccc3CC1C2C` (single isomer, unassigned; (+)) [(+)SKF 10,047, N-allyl-normetazocine, reference compound], the IC50 (read-out: IC50 vs. [3H]DTG) was 625 ± 88 nM. Turning to `Clc1cccc(Cl)c1N=C1NCCN1` [Clonidine, reference compound], the IC50 (read-out: IC50 vs. [3H]DTG) is greater than 10000 nM.

On to `CN(C)CCCN1c2ccccc2Sc2ccc(Cl)cc21` [Chlorpromazine, reference compound], for which the IC50 is, setting by setting: (read-out: IC50 binding values) 1480 ± 265 nM; (read-out: IC50 vs. [3H]DTG) 1480 nM. On to `C[N+](C)(C)CCCCCC[N+](C)(C)C` [hexamethonium, reference compound], for which the “displacement of [3H]DTG” value (10 uM) is listed as “no significant displacement”. As to `Cc1ccccc1NC(=N)Nc1ccc(N)cc1C` [NH2 --DTG, N-(2-Methyl-4-aminophenyl)-N'-(2-methylphenyl)-guanidine hydrochloride], the IC50 by setting is: under setting [1], 280 ± 20 nM; under setting [3], 280 ± 14 nM. Turning to `CN(C)CCCN1c2ccccc2CCc2ccccc21` [Imipramine, reference compound], the half-maximal inhibitory concentration (IC50) (read-out: IC50 vs. [3H]DTG) is 520 ± 14 nM. Regarding `CNC(=N)NC` [DMG, N,N'-di(methyl)guanidine, reference compound], the concentration for half-maximal inhibition (IC50) under setting [1] was greater than 10000 nM. As to `CC(C)(C)NC(=N)Nc1ccccc1I` [N-(o-iodophenyl)-N'-(t-butyl)guanidine], the “in vitro [3H]DTG displacement activity” value is “found to possess the aforesaid in vitro [^3 H]DTG displacement activity”. Besides, the IC50 under setting [1] is 20 nM. For the same molecule, the IC50 under setting [2] was found to be 20 nM.

In the case of `Cc1ccccc1NC(=N)Nc1ccc(N=[N+]=[N-])cc1C` [N-(2-Methyl-4-azido-phenyl)-N'-(2-methylphenyl)guanidine], the “in vitro [3H]DTG displacement activity” value was “found to possess the aforesaid in vitro [^3 H]DTG displacement activity”. In addition, the IC50 under setting [2] stood at 20 nM. The half-maximal inhibitory concentration (IC50) under setting [3] came to 20 ± 1 nM.

`N=C(Nc1ccc(I)cc1)NC1C2CC3CC(C2)CC1C3` (stereo not shown) [N-(adamant-2-yl)-N'-(p-iodophenyl)guanidine]: the “in vitro [3H]DTG displacement activity” value was “found to possess the aforesaid in vitro [^3 H]DTG displacement activity”. Also, the IC50 under setting [1] was found to be 2.7 nM.

Regarding `N=C(NC1CCCCC1)NC1CCCCC1` [N,N'-di(cyclohexyl)guanidine], the “in vitro [3H]DTG displacement activity” value was “found to possess the aforesaid in vitro [^3 H]DTG displacement activity”. Moreover, the concentration for half-maximal inhibition (IC50) under setting [1] was 71 nM. In addition, the IC50 under setting [2] is 71 nM. In addition, under setting [3], the IC50 was found to be 71 ± 7 nM. Turning to `CC(C)c1ccccc1NC(=N)NC12CC3CC(CC(C3)C1)C2` [N-(adamant-1-yl)-N'-(o-isopropylphenyl)guanidine], the “in vitro [3H]DTG displacement activity” value was “found to possess the aforesaid in vitro [^3 H]DTG displacement activity”. Moreover, under setting [1], the half-maximal inhibitory concentration (IC50) worked out at 24 nM. Also, under setting [2], the 50% inhibitory concentration (IC50) amounted to 24 nM.

As for `CN/C(=N/CCSCc1nc[nH]c1C)NC#N` [cimetidine, reference compound], the “displacement of [3H]DTG” value was “no significant displacement”. Turning to `CC1(C)[C@H]2CC[C@]1(C)[C@@H](NC(=N)Nc1ccccc1I)C2` (relative stereo) [N-(exo-2-isobornyl)-N'-(o-iodophenyl)guanidine], the “in vitro [3H]DTG displacement activity” value was “found to possess the aforesaid in vitro [^3 H]DTG displacement activity”. In addition, the IC50 under setting [1] is 18 nM. Besides, the 50% inhibitory concentration (IC50) under setting [2] worked out at 18 nM.

For the molecule `N=C(Nc1ccccc1I)NC1C2CC3CC(C2)CC1C3` (stereo not shown) [N-(adamant-2-yl)-N'-(2-iodophenyl)guanidine], the IC50 is 5.2 nM under setting [1] and 3.5 nM under setting [2]. As to `N=C(Nc1ccccc1I)N[C@H]1C[C@@H]2CC[C@H]1C2` (relative stereo) [N-(exo-2-norbornyl)-N'-(2-iodophenyl)guanidine], under setting [2], the IC50 came to 4 nM. In the case of `Cc1cc(Br)ccc1NC(=N)NC12CC3CC(CC(C3)C1)C2` [N-(adamant-1-yl)-N'-(p-bromo-o-tolyl)guanidine], the “in vitro [3H]DTG displacement activity” value is “found to possess the aforesaid in vitro [^3 H]DTG displacement activity”. Also, the concentration for half-maximal inhibition (IC50) under setting [2] was 2.7 nM. Take `CN(C)CCC=C1c2ccccc2CCc2ccccc21` [Amitriptyline, reference compound]: the concentration for half-maximal inhibition (IC50) (read-out: IC50 vs. [3H]DTG, Table III, ± SEM, average from 2-4 separate experiments in triplicate) is 300 ± 7 nM.

In the case of `CN(CC(=O)O)C(=N)N` [creatine, reference compound], the “displacement of [3H]DTG” value (10 uM) was “no significant displacement”. As to `Cc1ccccc1NC(=N)NC12CC3CC(C)(CC(C)(C3)C1)C2` [N-(3,5-dimethyladamantan-1-yl)-N'-(o-tolyl)guanidine], the “in vitro [3H]DTG displacement activity” value was “found to possess the aforesaid in vitro [^3 H]DTG displacement activity”. The IC50 under setting [1] is 15 nM. The IC50 under setting [2] was 15 nM. As for `N=C1Nc2ccccc2-c2ccccc2N1` [Bridge-DPG, 2-imino-1,3H-dibenzo[d,f]-[1,3]-diazepine], under setting [1], the IC50 is greater than 10000 nM. For the molecule `O=C(CCCN1CCC(O)(c2ccc(Cl)cc2)CC1)c1ccc(F)cc1` [Haloperidol, reference compound], the “affinity for / displacement at the [3H]DTG binding site” value is reported as “all specific binding is displaceable by haloperidol; also recorded: highest displacement potency of all drugs tested”. Turning to `CN1CCc2cccc3c2[C@H]1Cc1ccc(O)c(O)c1-3` [apomorphine, reference compound], the “displacement of [3H]DTG” value (10 uM) is recorded as “no significant displacement”. Take `N=C(N)NCCCC(=O)O` [gamma-guanidino butyric acid, reference compound]: under “10 uM”, the “displacement of [3H]DTG” value was “no significant displacement”. Regarding `N=C(N)NCC(=O)O` [guanidino acetic acid, reference compound], the “displacement of [3H]DTG” value (10 uM) is listed as “no significant displacement”.

Take `CN1CC(=O)NC1=N` [creatinine, reference compound]: the “displacement of [3H]DTG” value (10 uM) is on record as “no significant displacement”.

As for `N=C(NC1CC2CCC1C2)NC1CC2CCC1C2` (racemic) [N,N'-di-((±)-endo-2-norbornyl)guanidine], the “in vitro [3H]DTG displacement activity” value is “found to possess the aforesaid in vitro [^3 H]DTG displacement activity”. For the same molecule, the 50% inhibitory concentration (IC50) under setting [1] was 16 nM. Besides, under setting [2], the IC50 is 16 nM. Turning to `C=CCN1CC[C@]23c4c5ccc(O)c4O[C@H]2C(=O)CC[C@@]3(O)[C@H]1C5` [naloxone, reference compound], the “displacement of [3H]DTG” value (10 uM) is “no significant displacement”. On to `CNC(=N)N` [methyl-guanidine, reference compound], for which the “displacement of [3H]DTG” value (10 uM) is reported as “no significant displacement”. With “1,1-dimethyl-4-guanidine [reference compound]”, the “displacement of [3H]DTG” value is listed as “no significant displacement”. Regarding `Cc1ccccc1NC(=N)N[C@@H]1C[C@@H]2CC[C@H]1C2` (relative stereo) [N-((±)-endo-2-norbornyl)-N'-(2-methylphenyl)guanidine], under setting [2], the half-inhibitory concentration (IC50) came to 6 nM. `CN(C)CCCN1c2ccccc2Sc2ccc(C(F)(F)F)cc21` [Trifluopromazine, reference compound]: the IC50 (read-out: IC50 vs. [3H]DTG) is 605 ± 67 nM. For `O=C1CC2(CCCC2)CC(=O)N1CCCCN1CCN(c2nsc3ccccc23)CC1` [tiospirone, reference compound], the IC50 under setting [1] came out at 233 ± 52 nM. Consider `Cc1cccc(C)c1NC(=N)Nc1c(C)cccc1C` [DXG, N,N'-di-(2,6-dimethylphenyl)guanidine], for which the “in vitro [3H]DTG displacement activity” value is “found to possess the aforesaid in vitro [^3 H]DTG displacement activity”. Besides, the 50% inhibitory concentration (IC50) under setting [1] is 90 ± 18 nM. Besides, the half-maximal inhibitory concentration (IC50) under setting [2] is 90 nM. Under setting [3], the half-inhibitory concentration (IC50) came to 90 ± 18 nM. Consider picrotoxin [reference compound], for which the “displacement of [3H]DTG” value (10 uM) is given as “no significant displacement”.

The values are drawn from patent publication US5574070A, “Substituted guanidines having high binding to the sigma receptor and the use thereof” (priority 1993, dated 1996).
